Experimental findings from ChEMBL document CHEMBL3507680, “University of Dundee, Gates Library screen for HepG2 cell viability” are described below.

The data set can be described thus: Human HepG2 cell viability assay in 384 well format. The format is toxicity, cell-based. Also noted: dose 125 nL, time 70.5 hour; cytotoxicity at 70.5 h: concentration not given beside the values. The note with it: HepG2 cells, read-out: Inhibition.

For the molecule `O=C1[C@H]2CCCC[C@H]2C(=O)N1c1cnn(Cc2cccc(F)c2)c1`, the cytotoxicity at 70.5 h turned out to be 1.76%. The same measure for `O=C(O)CCn1nc(C(F)(F)F)c(Cl)c1C1CC1`: -19.2%. The figure for `Cc1nn(-c2ccccc2)c(C)c1CN1CCNCC1` is 27.3%. Turning to `O=C(O)c1ccn(COc2c(Cl)cccc2Cl)n1`, the cytotoxicity at 70.5 h was -7.49%.

`CCn1cc(-c2cc(C(F)F)nc3sc(C(N)=O)c(N)c23)c(C)n1`: the cytotoxicity at 70.5 h was -3.39%. As for `Cc1ccccc1NCc1nc2n(n1)CCCCC2`, the cytotoxicity at 70.5 h is 0.338%. The figure for `Cc1ccc(NCc2nc3n(n2)CCCCC3)c(C)c1` is 6.51%.

`Cc1ccc(C(=O)Cc2c(Cl)nc3n(C)c(=O)n(C)c(=O)n23)cc1`: the cytotoxicity at 70.5 h is -9.41%.

As to `Cn1c(=O)n(C)c2nc(Cl)c(CC(=O)c3ccc(F)cc3)n2c1=O`, the cytotoxicity at 70.5 h worked out at 0.873%. As for `Cc1c(Cl)cccc1NCc1nc2n(n1)CCCCC2`, the cytotoxicity at 70.5 h is -7.61%. For the molecule `Cc1ccc(Cl)cc1NCc1nc2n(n1)CCCCC2`, the cytotoxicity at 70.5 h is 7.47%. In the case of `CCOc1ccc(N2CCCN=C2NC(=O)c2cccc(OC)c2)cc1`, the cytotoxicity at 70.5 h stood at 2.56%.

Regarding `CCN1CC(Oc2ccc(Cl)cc2)=NC(SCC(=O)c2ccccc2)=N1`, the cytotoxicity at 70.5 h was 12.1%.

`CN1CC(Oc2ccccc2)=NC(SCC(=O)Nc2ccc(Cl)cc2)=N1`: the cytotoxicity at 70.5 h amounted to 0.871%. `CCOC(=O)N1CCN(C(=O)c2cc(-c3ccc(Cl)cc3Cl)on2)CC1`: the cytotoxicity at 70.5 h turned out to be 0.435%. The same measure for `Cc1nn(C)c2c(N3CCN(C(=O)C4CC4)CC3)ncnc12`: 16.2%; for `CCC(=O)N1CCN(c2ncnc3c(C)nn(C)c23)CC1`: 15.4%. Regarding `Cc1nc(N2CCN(C(=O)c3ccco3)CC2)c2c(n1)c(C)nn2C`, the cytotoxicity at 70.5 h was -6.71%. The figure for `Cc1nc(N2CCN(C(=O)C3CCCC3)CC2)c2c(n1)c(C)nn2C` is -0.908%; for `Cc1nc(N2CCN(C(=O)c3ccncc3)CC2)c2c(n1)c(C)nn2C` it is 19.4%; for `CC(NC(=O)c1ccc(F)cc1F)c1cnn(C)c1` (configuration not stated) it is -4.48%.

Take `Cc1nn(Cn2ccc(C(=O)N3CCCC(C)C3)n2)c(C)c1Cl` (configuration not stated): the cytotoxicity at 70.5 h was -5.65%. The figure for `CCN1CCCC1(C)c1nc(C)cc(N)n1` (configuration not stated) is -10.7%; for `CCC(=O)N1CCC(Cc2cnc(Nc3cnccn3)cn2)CC1` it is -11.1%; for `Cc1cncnc1C1CCN(CCO)CC1` it is -7.32%. In the case of `CCc1nnc(Nc2cc(C)nc(C3CCN(c4ncccn4)C3)n2)s1` (configuration not stated), the cytotoxicity at 70.5 h was found to be 3.49%.

Regarding `COc1ccccc1C1CNCCN1C(C)=O` (configuration not stated), the cytotoxicity at 70.5 h is -15.3%. The figure for `CN1CCCC1c1nccnc1-c1ccc(C(=O)O)cc1` (configuration not stated) is 11%; for `COc1ccccc1C1Cn2c(C)cnc2CN1Cc1c[nH]nc1C` (configuration not stated) it is -12.2%; for `COc1cccc(S(=O)(=O)N2C[C@@H](O)[C@H](N(C)C)C2)c1` it is -15.9%. In the case of `O=C(CN1CCNC1=O)NCc1ccc2sccc2c1`, the cytotoxicity at 70.5 h was -9.13%. The same measure for `CCN(CC)S(=O)(=O)N1C[C@@H](c2ccccc2)[C@H]2[C@H]1CCCCCN2C`: -1.32%; for `Cn1nc(-c2ccc(F)cc2)cc1C(=O)NCCn1ccnc1`: -10.2%.

Regarding `COc1ccc(-c2cc(C(=O)NCCCn3ccnc3C)n(C)n2)cc1`, the cytotoxicity at 70.5 h was -4.65%.

Regarding `Cc1noc(-c2c[nH]nc2C2CCCN2C(=O)c2ccccc2)c1C` (configuration not stated), the cytotoxicity at 70.5 h is -4.46%. The figure for `Cn1nccc1CN1CCCC(COc2ccccc2F)C1` (configuration not stated) is -4.6%; for `Cc1cncc(C2CCCN2CC(N)=O)n1` (configuration not stated) it is -2.96%; for `CN(C)c1cccc(C2CCN(C3COCC3O)CC2)n1` (configuration not stated) it is -4.45%. As for `Cc1nccc(N2CCCC2CCNS(C)(=O)=O)n1` (configuration not stated), the cytotoxicity at 70.5 h was -2.97%. The figure for `O=C(c1cc2c(s1)CCC2)N1CCC(c2cnccn2)CC1` is -6.29%; for `NCc1cccc(-c2cccnc2C(=O)NCCN2CCOCC2)c1` it is -9.72%. Take `O=C(c1ccc(-n2cccn2)nc1)N1CCCC(c2cnccn2)C1` (configuration not stated): the cytotoxicity at 70.5 h is -4.09%. Consider `COCCNc1nnc(-c2ccc(C)nc2)s1`, for which the cytotoxicity at 70.5 h worked out at 1.91%. The figure for `O=C(O)c1cncc(Cc2ccccc2F)c1` is -6.6%; for `O=C(O)c1cncc(Cc2ccc(F)cc2)c1` it is -7.6%; for `O=C(O)c1ccc(Cc2cccc(F)c2)nc1` it is -3.84%. With `O=C(O)c1cncc(Cc2cccc(F)c2)c1`, the cytotoxicity at 70.5 h is -7.96%. Regarding `CNC(=O)C1(C)CCCN1Cc1cnn(C)c1C` (configuration not stated), the cytotoxicity at 70.5 h is -8.11%. `CNC(=O)c1cccc(CC2COCCN(Cc3ccsc3)C2)n1` (configuration not stated): the cytotoxicity at 70.5 h is -6.49%.

For `Fc1cccc(CN2CCC(c3noc(-c4cnccn4)n3)CC2)c1F`, the cytotoxicity at 70.5 h was -0.815%.

`CC(=O)N1Cc2ccccc2OC2(CCN(C(=O)C3CC3)CC2)C1`: the cytotoxicity at 70.5 h was 25.4%. `Cn1c(C(=O)NC(Cc2ccsc2)c2cccnc2)cc(=O)n(C)c1=O` (configuration not stated): the cytotoxicity at 70.5 h was -0.464%. Consider `Cc1csc(C(Cc2ccsc2)NC(=O)c2cc(=O)n(C)c(=O)n2C)n1` (configuration not stated), for which the cytotoxicity at 70.5 h is -4.94%. `COc1cc2cc3c(nc2cc1OC)OCCN(CC1CC1)C3`: the cytotoxicity at 70.5 h is -2.88%. Regarding `COc1cc2cc3c(nc2cc1OC)OCCN(Cc1ccco1)C3`, the cytotoxicity at 70.5 h is 8.51%. The figure for `COc1ccc(-c2cc3cccn(CC(=O)N4CCOCC4)c-3n2)cc1` is 10.5%; for `COc1cccc(CNCc2cccnc2)c1` it is 9.83%; for `Cc1cccc(N2CCCC2c2nc(C)ncc2CN(C)C)n1` (configuration not stated) it is -4.92%. The same measure for `Cc1ccc(N(C)[C@@H]2CC[C@@H]3CN(C(=O)CC4CCOCC4)C[C@@H]32)nn1`: -7.61%; for `NCc1cccc(-c2cccnc2C(=O)NCCN2CCCC2)c1`: -8.26%; for `COCCN1CCCC(Cc2cnc(-c3c(C)nn(C)c3C)cn2)C1` (configuration not stated): -5.51%. The same measure for `COCCN1CCCC(c2ncc(C(=O)N3CCOCC3)c(C)n2)C1` (configuration not stated): 1.77%; for `CN1CCN(CC2(O)CCCN(C(=O)Cc3cccc(O)c3)CC2)CC1` (configuration not stated): -12.4%. With `COc1ccc(-c2cc(C3CCCNC3)ccn2)cc1` (configuration not stated), the cytotoxicity at 70.5 h was -12.4%. In the case of `O=C(C1CCCC1)N1C[C@@H](c2ccsc2)[C@@H]2CN(C3CCCC3)CC[C@@H]21`, the cytotoxicity at 70.5 h is -8.32%.

Take `Oc1cc(C2CCNCC2)nc(-c2ccsc2)n1`: the cytotoxicity at 70.5 h is -4.35%. The figure for `CC(C)(C)C(=O)N1C[C@H](c2ccsc2)[C@H]2CN(C3CCCC3)CC[C@H]21` is -4.45%.

On to `CN(C)Cc1cc(C2CCCCN2S(=O)(=O)Cc2ccccc2)nn1C` (configuration not stated), for which the cytotoxicity at 70.5 h is -14.1%.

For the molecule `O=C(NC1CCCC1)c1cc(C2CCCNC2)n[nH]1` (configuration not stated), the cytotoxicity at 70.5 h is -3.17%. The figure for `O=C(NC1CCCC1)C1(Cc2cc(C3CCOC3)no2)CCNCC1` (configuration not stated) is -5%. The figure for `Cc1ccc(C2(CN3CCN(Cc4cncn4C)CC3)CC2)cc1` is 12.6%. As for `Cc1cc(Nc2ccccn2)nc(C2CCCN(CCO)C2)n1` (configuration not stated), the cytotoxicity at 70.5 h was -8.92%.
